Test results: patent US20170056422A1, “PLASMODIUM LIVER-STAGE INHIBITORS AND RELATED METHODS” (Seattle Biomedical Research Institute, priority 2014, published 2017)
“Also recorded” adds a separate entry of the source. Where two headings read alike, the source gives them in different places.

Tests used:
Hepa 1-6 cells [1] = experiment: Cell permeabilization (cell death) assay, flow cytometry; assay type: cell-based; settings: 48 hour treatment
Description: Cell Permeabilization Assay. Hepa 1-6 cells were seeded in a 24-well tissue culture-treated plate at 3×10^5 cells per well overnight. […] Briefly, cells were stained live with reconstituted dye (1:500) in 500 μL PBS on ice for 30 minutes, mixing periodically, washed twice with 500 μL PBS, and then fixed with 100 μL BD Cytofix/Cytoperm™ fixation/permeabilization (BD Biosciences, San Jose, Calif., USA) solution for 15 minutes on ice. Cells were stored in 200 μL 5 mM EDTA in PBS at 4° C. until analyzed using a BD™ LSR II flow cytometer (BD Biosciences) at 605 nm on the violet 405 nm laser, and resulting FCS files were analyzed with FlowJo 7.6.1 (Tree Star, Ashland, Oreg., USA).

P. yoelii LS parasites [2] = experiment: Quantification of LS parasites in P. yoelii-infected Hepa 1-6 cells by manual counting; assay type: cell-based, Plasmodium yoelii; settings: for LS burden: 100 nM, 24 or 48 hours; for effect of adding pan-caspase inhibitor qVD-OPh on the LS reduction by the drug: qVD-OPh 20 μM
Description: Quantification of LS parasites after ABT-737, ABT-199, Obatoclax, Nutlin-3, or Serdemetan treatment by manual counting. In all, 1.5×10^5 Hepa 1-6 cells were seeded in DMEM complete medium in each well of an eight-well Permanox slide. Cells were infected with 5×10^4 P. yoelii sporozoites. Slides were centrifuged for 3 min at 515× g in a hanging-bucket centrifuge to aid in sporozoite invasion. After 90 min, we removed media that contained sporozoites that had not infected the cells and added fresh media only, or media containing ABT-737 (100 nM), ABT-199 (100 nM), Obatoclax (100 nM), Nutlin-3 (20 μM), or Serdemetan (10 μM) with or without qVD-OPh (20 μM). We allowed LSs to develop for 24 hours or 48 hours, at which time cells were fixed with 4% paraformaldehyde, blocked, and permeabilized for 1 hour in PBS with the addition of 0.1% Triton X-100 and 2% BSA. Staining steps were performed in PBS supplemented with 2% BSA. We stained cells using anti-sera to Plasmodium HSP70 and UIS4 proteins at 4° C. overnight and then washed several times, and antibodies were visualized with the use of AlexaFluor-488 goat anti-mouse and AlexaFluor-594 goat anti-rabbit secondary antibody (Life Technologies, Grand Island, N.Y., USA). We used DAPI stain to visualize both hepatocyte and parasite nuclei. Sporozoites that had not invaded and/or developed in hepatoma cells were distinguished by UIS4 circumferential staining and morphology. All LS parasites in each well were counted, and each assay was performed in biological triplicate.

p53 = experiment: Quantification of p53 by Western blotting in Hepa 1-6 cells; assay type: cell-based; settings: immunoblot, 24 or 48 hours
Description: Quantification of p53 by Western Blotting. We plated 10^6 Hepa 1-6 cells per well of a 6-well plate in DMEM complete media and treated with complete media only, 20 μM Nutlin-3, 100 nM ABT-737, 100 nM Obatoclax, or 10 μM Serdemetan for 24 or 48 hours. Cells were lysed in SDS lysis buffer (2% SDS, 50 mM Tris-HCl, 5% glycerol, 5 mM EDTA, 1 mM NaF, 10 mM β-glycerophosphate, 1 mM PMSF, 1 mM activated Na3VO4, 1 mM DTT, 1% phosphatase inhibitor cocktail 2; Sigma-Aldrich), 1% PhosSTOP Phosphatase Inhibitor Cocktail Tablet (Roche), filtered overnight at 3000 rpm through AcroPrep Advance Filter Plates (Pall Corporation) and stored at −80° C. Western blots were performed according to manufacturer instruction with the iBlot Dry Transfer System (Life Technologies, Carlsbad, Calif., USA) using an antibody to p53 (Clone 1C12; Cell Signaling Technology) and then normalized to signal from an anti-β-actin (Cell Signaling Technology) Western blot. Signals from immunoblots were detected using either an Alexa 680-conjugated anti-rabbit antibody or an Alexa 800-conjugated anti-mouse antibody (LI-COR Biosciences). Membranes were visualized using an Odyssey infrared imaging system (LI-COR Biosciences).

Hepa 1-6 cells [3] = experiment: Apoptosis in Hepa 1-6 cells (data not shown); assay type: cell-based
[4] = reportedly; cited from earlier work
[5] = cited from earlier work
P. yoelii LS parasites [6] = experiment: Quantification of LS parasites in P. yoelii-infected Hepa 1-6 cells by manual counting; assay type: cell-based, Plasmodium yoelii; settings: Serdemetan 10 μM for 24 hours both before and after infection
P. yoelii [7] = experiment: Nutlin-3 and Obatoclax in vivo, blood stage patency in BALB/cJ mice; settings: Nutlin-3 200 mg/kg twice daily, Obatoclax 5 mg/kg once daily; 1000 or 100 spz i.v.
Description: Nutlin-3 and Obatoclax in vivo experiments. 60 BALB/cJ mice (Jackson Laboratory, Bar Harbor, Me., USA) were treated with either vehicle control 5 mg/kg of Obatoclax, 200 mg/kg Nutlin-3, or both Obatoclax and Nutlin-3 by oral gavage once (Obatoclax) or twice (Nutlin-3) daily for 3 days. On the second day of treatment, mice were injected with 1000 or 100 P. yoelii sporozoites. Patency was checked by Giemsa-stained thin blood smear daily for the first 7 days, then every other day until day 14. Animal handling was conducted according to the Institutional Animal Care and Use Committee-approved protocols.

P. yoelii [8] = experiment: Specific action of Nutlin-3 in vivo, patency in wild-type and liver-specific p53 knockout mice; settings: 1000 spz
Text: Specific Action of Nutlin-3 in vivo experiment. Liver-specific p53 knock-out mice were generated by breeding p53 floxed mice (B6.129P2-Trp53tm1Brn/J) and cre-albumin (B6.Cg-Tg(Alb-cre)21Mgn/J). P53 floxed/unfloxed alleles were identified by size of band on a 2% agarose gel (270 bp for WT, 390 bp for floxed) using the primers: forward—[…] (SEQ ID NO:1) and reverse—[…] (SEQ ID NO:2). Cre was identified by the presence/absence of the mutant allele (heterozygotes vs. homozygotes were not distinguished) using the primers: forward—[…] (SEQ ID NO:3) and reverse—[…] (SEQ ID NO:4). All DNA was extracted using Qiagen DNEasy Blood & Tissue Kit (Qiagen Inc., Valencia, Calif., USA) per manufacturer's protocol. PCR was performed using BioMix Red (2×) from BioLine (BioLine USA Inc., Taunton, Mass., USA).
Both wild-type p53 (cre-alb) and liver-specific p53 knockout mice (cre-alb/flox-p53) were treated with either vehicle or Nutlin-3 as described in the previous in vivo method. On the second day of treatment, all mice were infected i.v. with 1000 P. yoelii sporozoites. Patency was checked by Giemsa-stained thin blood smear daily until all mice became patent. Animal handling was conducted according to the Institutional Animal Care and Use Committee-approved protocols.

## CN(C)CC[C@H](CSc1ccccc1)Nc1ccc(S(=O)(=O)NC(=O)c2ccc(N3CCN(Cc4ccccc4-c4ccc(Cl)cc4)CC3)cc2)cc1[N+](=O)[O-] [ABT-737]
Hepa 1-6 cells [1]
  uninfected hepatoma cell death: no increase
P. yoelii LS parasites [2]
  LS burden: efficiently eliminates parasites
  effect of adding pan-caspase inhibitor qVD-OPh on the LS reduction by the drug: almost completely reversed
p53
  p53 protein levels: do not increase p53 levels

## CC(C)[C@H](NC(=O)c1ccc2ccccc2n1)C(=O)N[C@@H](CC(=O)O)C(=O)COc1c(F)cccc1F [qVD-OPh, N-(2-Quinolyl)-L-valyl-L-aspartyl-(2,6-difluorophenoxy) methylketone]
Hepa 1-6 cells [3]
  apoptosis in Hepa 1-6 cells: reverses nearly all apoptosis

## c1ccc2c(CCNc3ccc(Nc4ccncc4)cc3)c[nH]c2c1 [Serdemetan]
[4]
  toxicity compared with Nutlin-3: lower toxicity
[5]; clinical trials
  tolerability in humans: well-tolerated
P. yoelii LS parasites [2]; 48 hours
  P. yoelii LS burden versus Serdemetan concentration: dose-dependent manner
P. yoelii LS parasites [2]; in vitro, half the dose of Nutlin-3
  LS-infected hepatocytes eliminated: more than 90%
P. yoelii LS parasites [2]
  effect of adding pan-caspase inhibitor qVD-OPh on the LS reduction by the drug: did not reverse
P. yoelii LS parasites [6]
  LS parasites: completely eliminated
p53
  p53 protein levels: substantially boosted

## CC1(C)CCC(CN2CCN(c3ccc(C(=O)NS(=O)(=O)c4ccc(NCC5CCOCC5)c([N+](=O)[O-])c4)c(Oc4cnc5[nH]ccc5c4)c3)CC2)=C(c2ccc(Cl)cc2)C1 [ABT-199]
P. yoelii LS parasites [2]
  LS burden: minimal decrease; also recorded: did not reduce LS burden

## COc1ccc(C2=N[C@@H](c3ccc(Cl)cc3)[C@@H](c3ccc(Cl)cc3)N2C(=O)N2CCNC(=O)C2)c(OC(C)C)c1 [Nutlin-3]
Hepa 1-6 cells [1]
  uninfected hepatoma cell death: no increase
P. yoelii [7]
  onset of patency: delay in the onset of patency
P. yoelii [8]; cre-Alb (wild-type p53) mice, 200 mg/kg twice daily oral gavage
  onset of patency: highly effective
P. yoelii [8]; liver-specific p53 knockout mice (p53-flox/cre-Alb), 200 mg/kg twice daily
  onset of patency: did not delay the onset of patency
P. yoelii LS parasites [2]; Nutlin-3 20 μM, 48 hours
  liver stage parasites eliminated: 97%
P. yoelii LS parasites [2]
  effect of adding pan-caspase inhibitor qVD-OPh on the LS reduction by the drug: completely unaltered
p53
  p53 protein levels: substantially boosted

## COC1=CC(c2cc3ccccc3[nH]2)=N/C1=C\c1[nH]c(C)cc1C [Obatoclax]
Hepa 1-6 cells [1]
  uninfected hepatoma cell death: no increase
[5]; human, in vivo
  tolerability in humans: well-tolerated
